How the values were obtained:
Assay type in all cases: cell-based
[1] = test system: 3T3-L1 adipocytes; experiment: Glucose uptake in 3T3-L1 adipocytes
Method: 3T3-L1 were grown in Dulbecco's Modified Eagle's Medium (Gib-co/Invitrogen, Carlsbad, Calif., USA) with 4.5 g/l glucose and 10% fetal bovine serum. Differentiation was induced in two-day-postconfluent cells by supplementing the media with 1 μM insulin, 100 nM dexamethasone, and 500 μM isobutylmethylxanthine for 48 hours, followed by media supplemented with 1 μM insulin for another 48 hours, then normal media until differentiation day 10. Fully differentiated 3T3-L1 adipocytes (day 10) in 48-well plates were serum-starved for 1 hour before incubation with Krebs-Ringer-HEPES (KRH) buffer with or without 10 nM insulin for 30 minutes, followed by addition of 1 mM, 100 nCi [3H]-2-deoxyglucose for 10 minutes. Uptake was stopped by lysing the cells with 0.1% sodium dodecyl sulfate (SDS). Lysates were transferred to liquid scintillation cocktail (Fisher […] 50% Plus) and counted in a Beckman LS counter.

[2] = test system: 3T3-L1 adipocytes; experiment: Lipolysis in 3T3-L1 adipocytes (glycerol release); conditions: cultured 3T3-L1 adipocytes (FIG. 13A)
Method: 3T3-L1 were grown in Dulbecco's Modified Eagle's Medium (Gib-co/Invitrogen, Carlsbad, Calif., USA) with 4.5 g/l glucose and 10% fetal bovine serum. Differentiation was induced in two-day-postconfluent cells by supplementing the media with 1 μM insulin, 100 nM dexamethasone, and 500 μM isobutylmethylxanthine for 48 hours, followed by media supplemented with 1 μM insulin for another 48 hours, then normal media until differentiation day 10.
Fully differentiated 3T3-L1 adipocytes (day 10) in 48-well plates were washed, and 100 μl of KRH buffer with 3% BSA and 4 g/l D-glucose with or without 100 nM isoproterenol was added to each well. After 1 hour at 37° C./5% CO2 a 50 μl aliquot from each well was transferred to a 96-well plate; 50 μl of lipolysis assay buffer (Cayman Chemical) were added, and the plate was incubated at room temperature, protected from light, for 30 min. Absorption was measured at 540 nm. A standard curve was included on each plate to allow calculation of the glycerol concentration in the supernatants.

[3] = test system: 3T3-L1 adipocytes; experiment: Oxygen consumption of 3T3-L1 adipocytes
Method: 3T3-L1 were grown in Dulbecco's Modified Eagle's Medium (Gib-co/Invitrogen, Carlsbad, Calif., USA) with 4.5 g/l glucose and 10% fetal bovine serum. Differentiation was induced in two-day-postconfluent cells by supplementing the media with 1 μM insulin, 100 nM dexamethasone, and 500 μM isobutylmethylxanthine for 48 hours, followed by media supplemented with 1 μM insulin for another 48 hours, then normal media until differentiation day 10. Oxygen consumption was measured with a Rank Brothers oxygen electrode (Rank Brothers Ltd., Cambridge, UK). Cultured cells were trypsinized, counted in a hemocytometer, spun down, and resuspended in respiration buffer (PBS, 2% BSA, 4.5 g/l glucose, 120 mg/l sodium pyruvate) to 1E6/ml. Partial oxygen pressure was recorded using a Rank Brothers digital model 10 and a PowerLab 4/30 data acquisition system (ADInstruments, Colorado Springs, Colo.).

## CNC(=O)c1cccnc1 [N-methylnicotinamide]
[1]; 3T3-L1 adipocytes (FIG. 13B)
  insulin-dependent glucose uptake: stimulated
[1]; no insulin (FIG. 15B)
  basal glucose uptake: stimulated
[1]; submax insulin (FIG. 15C)
  submaximally insulin-induced glucose uptake: stimulated
[1]; submax insulin stimulation (FIG. 15C)
  glucose uptake, co-administration with DFMO relative to DFMO alone: increase
[2]
  lipolysis (glycerol released into the culture supernatant): increased
[3]; FIG. 12C
  oxygen consumption in differentiated 3T3-L1 adipocytes: increased
[3]; text: cultured hepatoma cells, legend: 3T3-L1 adipocytes
  oxygen consumption (FIG. 15A): stimulated

Reference: US9072766B2, “Methods of treating obesity by inhibiting nicotinamide N-methyl transferase (NNMT)” (Beth Israel Deaconess Medical Center, Inc., priority 2010, dated 2015)
